Source: US12162820B2 (TAIWANJ PHARMACEUTICALS CO., LTD., priority 2019, dated 2024)

Key:
Assay type in all cases: biochemical
HDAC3 = molecular target: T1, HDAC3 (Homo sapiens, UniProt O15379); experiment: HDAC Inhibition Screening Assay (FLUOR DE LYS Fluorimetric Drug Discovery Kit), HDAC3; details: for inhibition at 2 µM: 2 μM compound; for inhibition at 10 µM: 10 μM compound; for inhibition at 50 µM: 50 μM compound
T1 construct: purchased Enzo Life Sciences
Summary of the method: (§1)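 Two-step fluorimetric kit: enzyme deacetylates acetylated-lysine substrate; developer then releases fluorophore. Test cpds 2, 10, 50 μM. Ex 360/485 nm, Em 460/530 nm. Activity = % of basal control minus baseline control.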

ATX (autotaxin) = molecular target: T2, ATX (autotaxin) (Homo sapiens, UniProt Q13822); experiment: Autotaxin Inhibition Screening Assay (choline release from LPC, LPC-CR); details: for inhibition at 4 µM: 4 μM compound; for inhibition at 20 µM: 20 μM compound; for inhibition at 50 µM: 50 μM compound
T2 construct: purchased Cayman 10803
Summary of the method: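 Released choline from 100 μM 14:0 LPC, detected via choline oxidase–HRP–homovanillic acid fluorescence (320/450 nm) kinetically over 90 min, reports activity of 20 ng ATX. Buffer: 50 mM Tris pH 8.0, 50 mM CaCl2, 0.01% Triton X-100; test compounds 4, 20, 50 μM; percent inhibition from blank-subtracted slopes relative to vehicle.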

HDAC1 = molecular target: T3, HDAC1 (Homo sapiens, UniProt Q13547); experiment: HDAC Inhibition Screening Assay (FLUOR DE LYS Fluorimetric Drug Discovery Kit), HDAC1; details: for inhibition at 2 µM: 2 μM compound; for inhibition at 10 µM: 10 μM compound; for inhibition at 50 µM: 50 μM compound
T3 construct: purchased Enzo Life Sciences
Summary of the method: as §1

HDAC2 = molecular target: T4, HDAC2 (Homo sapiens, UniProt Q92769); experiment: HDAC Inhibition Screening Assay (FLUOR DE LYS Fluorimetric Drug Discovery Kit), HDAC2; details: for inhibition at 2 µM: 2 μM compound; for inhibition at 10 µM: 10 μM compound; for inhibition at 50 µM: 50 μM compound
T4 construct: purchased Enzo Life Sciences
Summary of the method: as §1

T1 sequence (O15379 whole entry): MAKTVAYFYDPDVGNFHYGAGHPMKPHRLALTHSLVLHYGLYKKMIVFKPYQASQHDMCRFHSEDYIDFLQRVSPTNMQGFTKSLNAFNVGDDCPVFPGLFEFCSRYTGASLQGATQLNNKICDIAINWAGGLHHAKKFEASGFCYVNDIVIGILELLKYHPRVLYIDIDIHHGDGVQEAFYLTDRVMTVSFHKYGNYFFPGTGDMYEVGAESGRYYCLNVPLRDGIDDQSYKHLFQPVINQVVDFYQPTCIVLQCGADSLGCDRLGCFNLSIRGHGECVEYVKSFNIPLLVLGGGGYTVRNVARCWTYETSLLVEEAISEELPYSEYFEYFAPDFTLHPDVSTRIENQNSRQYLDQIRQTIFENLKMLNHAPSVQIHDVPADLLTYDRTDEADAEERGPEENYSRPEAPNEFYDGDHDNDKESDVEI
T1 sequence (O75376 395-489 partner limits assumed): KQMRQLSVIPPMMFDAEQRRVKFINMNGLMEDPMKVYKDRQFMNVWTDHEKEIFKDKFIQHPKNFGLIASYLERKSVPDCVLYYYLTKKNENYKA
T4 sequence (Q92769 whole entry): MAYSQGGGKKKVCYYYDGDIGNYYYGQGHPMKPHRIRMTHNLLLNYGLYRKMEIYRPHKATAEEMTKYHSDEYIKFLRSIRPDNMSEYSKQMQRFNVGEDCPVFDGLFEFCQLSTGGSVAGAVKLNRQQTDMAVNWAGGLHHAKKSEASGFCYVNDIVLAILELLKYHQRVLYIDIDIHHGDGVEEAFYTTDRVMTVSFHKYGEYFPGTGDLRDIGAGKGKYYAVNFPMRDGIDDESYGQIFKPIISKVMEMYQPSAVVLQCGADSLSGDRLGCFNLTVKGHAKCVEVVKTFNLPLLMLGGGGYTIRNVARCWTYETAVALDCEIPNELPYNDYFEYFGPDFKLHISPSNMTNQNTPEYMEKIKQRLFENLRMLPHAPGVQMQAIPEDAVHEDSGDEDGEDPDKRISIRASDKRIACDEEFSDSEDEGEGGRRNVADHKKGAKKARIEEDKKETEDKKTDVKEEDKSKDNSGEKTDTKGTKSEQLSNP
T3 sequence (Q13547 whole entry): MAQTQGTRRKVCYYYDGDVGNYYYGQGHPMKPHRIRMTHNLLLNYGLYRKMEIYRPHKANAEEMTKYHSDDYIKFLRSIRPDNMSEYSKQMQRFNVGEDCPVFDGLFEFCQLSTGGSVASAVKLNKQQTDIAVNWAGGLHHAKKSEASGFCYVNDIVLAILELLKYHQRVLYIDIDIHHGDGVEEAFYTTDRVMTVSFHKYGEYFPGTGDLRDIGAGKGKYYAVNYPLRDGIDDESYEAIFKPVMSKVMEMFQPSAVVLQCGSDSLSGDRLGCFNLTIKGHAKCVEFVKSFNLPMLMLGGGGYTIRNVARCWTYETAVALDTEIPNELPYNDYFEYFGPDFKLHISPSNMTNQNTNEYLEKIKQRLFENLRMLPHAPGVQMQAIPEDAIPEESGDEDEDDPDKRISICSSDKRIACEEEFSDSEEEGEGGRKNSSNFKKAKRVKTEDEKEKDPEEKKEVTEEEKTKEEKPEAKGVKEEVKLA

SMILES	inhibition at 2 µM (HDAC3) [%]	inhibition at 10 µM (HDAC3) [%]	inhibition at 50 µM (HDAC3) [%]	inhibition at 4 µM (ATX (autotaxin)) [%]	inhibition at 20 µM (ATX (autotaxin)) [%]	inhibition at 50 µM (ATX (autotaxin)) [%]	inhibition at 2 µM (HDAC1) [%]	inhibition at 10 µM (HDAC1) [%]	inhibition at 50 µM (HDAC1) [%]	inhibition at 2 µM (HDAC2) [%]	inhibition at 10 µM (HDAC2) [%]	inhibition at 50 µM (HDAC2) [%]
Cc1[nH]c2ccccc2c1CCNC1CCCc2cc(/C=C/C(=O)Nc3ccc(F)cc3N)ccc21 (stereo not drawn) [Compound 62, (E)-N-(2-amino-4-fluorophenyl)-3-(5-((2-(2-methyl-1H-indol-3-yl)ethyl)amino)-5,6,7,8-tetrahydronaphthalen-2-yl)acrylamide]	50 to 80	> 80	> 80	< 50	< 50	< 50	50 to 80	> 80	> 80	> 80	> 80	> 80
O=C(/C=C/c1ccc2c(c1)CCC2NC(=O)c1cc(C(F)(F)F)cc(C(F)(F)F)c1)NO (stereo not drawn) [Compound 22, (E)-N-(5-(3-(hydroxyamino)-3-oxoprop-1-en-1-yl)-2,3-dihydro-1H-inden-1-yl)-3,5-bis(trifluoromethyl)benzamide]	50 to 80	> 80	> 80	< 50	< 50	< 50	50 to 80	> 80	> 80	50 to 80	> 80	> 80
